Paper PMC5391474, “Investigation of the Role of Protein Kinase D in Human Rhinovirus Replication” (Journal of Virology, 2017)

What was measured:
Test in all cases: biochemical
Set-up in all cases: in vitro kinase selectivity panel, protein and lipid kinases, single concentration, ATP at Km
Settings in all cases: ATP at Km
[1] = molecular target: T1, BRK(h) (Homo sapiens, UniProt Q13882)
T1 construct: gene PTK6
Method: (§1) CRT0066101 was described previously ([48]) and was purchased for this study from Tocris, with a purity of 99.9%. CRT0066101 (XX-209) and compound XX-050 were synthesized as previously described ([68]). CRT0066051 (Y-095) was also synthesized as previously described ([69]). […] CRT0066101 can also be obtained in larger quantities from Ximbio. Inhibitors were tested in in vitro PKD kinase assays and cellular assays on PANC1 cells as previously described ([48]). The selectivity of the three PKD inhibitors was determined against a panel of protein and lipid kinases by Eurofins and the MRC PPU International Centre for Kinase Profiling (http://www.kinase-screen.mrc.ac.uk), respectively. Each inhibitor was tested at a single concentration of 1 μM and at an ATP concentration equivalent to the Km for each kinase. Having shown that HRV infection appears to activate PKD, we went on to explore the influence of chemical inhibitors of PKD on HRV replication. The compound CRT0066101 is a specific and potent PKD inhibitor that has been used in studies exploring its potential as an anticancer target ([48], [51]). This inhibitor has a 50% inhibitory concentration (IC50) of 1 nM against purified PKD in biochemical assays and a 50% effective concentration (EC50) of 1 μM in a cell-based assay (Table 1). We pretreated HeLa cells with increasing concentrations of the drug for 1 h followed by infection with HRV16. Viral replication was subsequently measured at 6 hpi by quantitative real-time PCR (qRT-PCR) (Fig. 2A) and by Western blotting using an antibody against the viral nonstructural protein 2C (Fig. 2B). […] Furthermore, we tested two novel and structurally different PKD inhibitors (CRT0066051 and XX-050) (Table 1) and confirmed that they too inhibited HRV 2C expression although with different potencies (Fig. 2D). Kinase selectivity profiling of all three PKD inhibitors was performed against a panel of protein and lipid kinases at a drug concentration of 1 μM and at an ATP concentration equivalent to the Km of each kinase (see Table S1 in the supplemental material). […] Since PKD is known to be involved in regulating the architecture of the Golgi apparatus, we confirmed the pharmacodynamic effect of these inhibitors by demon

[2] = molecular target: T2, CHK1(h) (Homo sapiens, UniProt O14757)
T2 construct: gene CHEK1
T2 sequence (O14757 whole entry): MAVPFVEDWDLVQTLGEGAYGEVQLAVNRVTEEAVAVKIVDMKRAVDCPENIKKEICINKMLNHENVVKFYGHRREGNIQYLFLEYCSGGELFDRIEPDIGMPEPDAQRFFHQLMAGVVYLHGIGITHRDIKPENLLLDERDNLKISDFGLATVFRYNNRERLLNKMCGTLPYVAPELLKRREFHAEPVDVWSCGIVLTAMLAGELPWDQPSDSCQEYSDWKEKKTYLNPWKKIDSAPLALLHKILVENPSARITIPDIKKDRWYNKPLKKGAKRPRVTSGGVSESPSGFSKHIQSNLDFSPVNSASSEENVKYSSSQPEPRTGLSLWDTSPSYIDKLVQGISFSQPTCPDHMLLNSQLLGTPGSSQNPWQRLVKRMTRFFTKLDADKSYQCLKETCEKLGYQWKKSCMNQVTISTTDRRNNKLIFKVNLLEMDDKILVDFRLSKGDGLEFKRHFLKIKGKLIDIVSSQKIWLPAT
Method: as §1

[3] = molecular target: T3, CK1δ(h) (Homo sapiens, UniProt P48730)
T3 construct: gene CSNK1D
T3 sequence (P48730 whole entry): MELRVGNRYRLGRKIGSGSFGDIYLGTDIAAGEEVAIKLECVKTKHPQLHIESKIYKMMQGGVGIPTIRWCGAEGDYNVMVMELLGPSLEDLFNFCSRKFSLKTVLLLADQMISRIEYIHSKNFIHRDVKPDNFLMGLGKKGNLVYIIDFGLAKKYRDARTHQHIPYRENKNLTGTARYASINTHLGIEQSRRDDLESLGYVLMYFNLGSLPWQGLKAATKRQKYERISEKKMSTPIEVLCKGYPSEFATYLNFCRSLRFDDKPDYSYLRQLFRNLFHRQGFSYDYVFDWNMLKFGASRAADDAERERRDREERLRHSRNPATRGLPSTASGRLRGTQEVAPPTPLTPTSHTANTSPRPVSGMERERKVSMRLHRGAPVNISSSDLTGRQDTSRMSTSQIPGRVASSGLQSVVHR
Method: as §1

[4] = molecular target: DDR2(h) (Homo sapiens, UniProt Q16832)
Method: as §1

[5] = molecular target: DGKG (Homo sapiens, UniProt P49619)
Chain of DGKG (P49619 whole entry): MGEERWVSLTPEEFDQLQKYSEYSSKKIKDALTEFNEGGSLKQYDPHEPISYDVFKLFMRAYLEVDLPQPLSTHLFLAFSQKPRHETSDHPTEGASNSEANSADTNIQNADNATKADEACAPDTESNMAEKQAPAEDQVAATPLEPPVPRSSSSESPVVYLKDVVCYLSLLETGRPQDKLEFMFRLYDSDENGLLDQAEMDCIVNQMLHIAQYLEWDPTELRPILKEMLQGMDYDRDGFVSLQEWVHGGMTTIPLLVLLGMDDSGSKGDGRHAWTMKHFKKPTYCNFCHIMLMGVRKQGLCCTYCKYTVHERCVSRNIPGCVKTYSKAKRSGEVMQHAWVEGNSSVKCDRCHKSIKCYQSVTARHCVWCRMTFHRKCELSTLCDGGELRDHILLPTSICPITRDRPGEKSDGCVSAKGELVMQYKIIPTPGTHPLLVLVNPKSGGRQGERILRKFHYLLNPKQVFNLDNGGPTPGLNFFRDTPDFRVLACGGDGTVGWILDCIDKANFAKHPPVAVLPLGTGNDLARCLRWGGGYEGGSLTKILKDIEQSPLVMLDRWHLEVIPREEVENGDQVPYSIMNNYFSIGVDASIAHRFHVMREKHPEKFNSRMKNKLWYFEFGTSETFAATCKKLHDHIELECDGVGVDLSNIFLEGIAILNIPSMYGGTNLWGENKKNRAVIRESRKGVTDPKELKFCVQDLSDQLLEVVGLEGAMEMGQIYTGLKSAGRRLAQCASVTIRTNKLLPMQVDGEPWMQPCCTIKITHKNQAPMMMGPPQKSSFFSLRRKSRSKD
Method: as §1

[6] = molecular target: DGKZ (Homo sapiens, UniProt Q13574)
Chain of DGKZ (Q13574 whole entry): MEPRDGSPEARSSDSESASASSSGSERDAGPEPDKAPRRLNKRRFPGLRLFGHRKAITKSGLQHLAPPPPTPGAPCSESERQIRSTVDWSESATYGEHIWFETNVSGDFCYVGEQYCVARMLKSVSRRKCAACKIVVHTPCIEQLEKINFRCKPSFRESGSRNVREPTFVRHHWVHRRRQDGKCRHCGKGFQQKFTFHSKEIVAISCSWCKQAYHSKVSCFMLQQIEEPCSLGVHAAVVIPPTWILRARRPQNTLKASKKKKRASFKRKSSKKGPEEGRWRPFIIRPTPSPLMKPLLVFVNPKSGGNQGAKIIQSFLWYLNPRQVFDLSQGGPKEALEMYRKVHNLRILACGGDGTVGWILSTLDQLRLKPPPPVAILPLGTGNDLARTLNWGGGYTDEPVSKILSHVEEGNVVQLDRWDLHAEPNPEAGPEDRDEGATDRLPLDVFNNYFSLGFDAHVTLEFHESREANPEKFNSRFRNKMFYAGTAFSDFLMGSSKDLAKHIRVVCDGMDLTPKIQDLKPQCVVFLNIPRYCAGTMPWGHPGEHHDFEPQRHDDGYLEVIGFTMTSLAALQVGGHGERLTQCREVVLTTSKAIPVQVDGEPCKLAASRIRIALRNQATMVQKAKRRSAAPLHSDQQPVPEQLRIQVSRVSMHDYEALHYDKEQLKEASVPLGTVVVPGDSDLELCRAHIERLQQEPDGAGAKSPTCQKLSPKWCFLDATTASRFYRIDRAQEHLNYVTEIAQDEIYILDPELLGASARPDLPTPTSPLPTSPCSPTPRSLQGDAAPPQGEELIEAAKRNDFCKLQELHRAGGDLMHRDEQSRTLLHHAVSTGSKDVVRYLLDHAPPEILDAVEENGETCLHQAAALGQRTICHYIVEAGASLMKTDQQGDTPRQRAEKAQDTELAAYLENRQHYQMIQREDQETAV
Method: as §1

[7] = molecular target: ErbB4(h) (Homo sapiens, UniProt Q15303)
Chain of ErbB4(h) (Q15303 whole entry): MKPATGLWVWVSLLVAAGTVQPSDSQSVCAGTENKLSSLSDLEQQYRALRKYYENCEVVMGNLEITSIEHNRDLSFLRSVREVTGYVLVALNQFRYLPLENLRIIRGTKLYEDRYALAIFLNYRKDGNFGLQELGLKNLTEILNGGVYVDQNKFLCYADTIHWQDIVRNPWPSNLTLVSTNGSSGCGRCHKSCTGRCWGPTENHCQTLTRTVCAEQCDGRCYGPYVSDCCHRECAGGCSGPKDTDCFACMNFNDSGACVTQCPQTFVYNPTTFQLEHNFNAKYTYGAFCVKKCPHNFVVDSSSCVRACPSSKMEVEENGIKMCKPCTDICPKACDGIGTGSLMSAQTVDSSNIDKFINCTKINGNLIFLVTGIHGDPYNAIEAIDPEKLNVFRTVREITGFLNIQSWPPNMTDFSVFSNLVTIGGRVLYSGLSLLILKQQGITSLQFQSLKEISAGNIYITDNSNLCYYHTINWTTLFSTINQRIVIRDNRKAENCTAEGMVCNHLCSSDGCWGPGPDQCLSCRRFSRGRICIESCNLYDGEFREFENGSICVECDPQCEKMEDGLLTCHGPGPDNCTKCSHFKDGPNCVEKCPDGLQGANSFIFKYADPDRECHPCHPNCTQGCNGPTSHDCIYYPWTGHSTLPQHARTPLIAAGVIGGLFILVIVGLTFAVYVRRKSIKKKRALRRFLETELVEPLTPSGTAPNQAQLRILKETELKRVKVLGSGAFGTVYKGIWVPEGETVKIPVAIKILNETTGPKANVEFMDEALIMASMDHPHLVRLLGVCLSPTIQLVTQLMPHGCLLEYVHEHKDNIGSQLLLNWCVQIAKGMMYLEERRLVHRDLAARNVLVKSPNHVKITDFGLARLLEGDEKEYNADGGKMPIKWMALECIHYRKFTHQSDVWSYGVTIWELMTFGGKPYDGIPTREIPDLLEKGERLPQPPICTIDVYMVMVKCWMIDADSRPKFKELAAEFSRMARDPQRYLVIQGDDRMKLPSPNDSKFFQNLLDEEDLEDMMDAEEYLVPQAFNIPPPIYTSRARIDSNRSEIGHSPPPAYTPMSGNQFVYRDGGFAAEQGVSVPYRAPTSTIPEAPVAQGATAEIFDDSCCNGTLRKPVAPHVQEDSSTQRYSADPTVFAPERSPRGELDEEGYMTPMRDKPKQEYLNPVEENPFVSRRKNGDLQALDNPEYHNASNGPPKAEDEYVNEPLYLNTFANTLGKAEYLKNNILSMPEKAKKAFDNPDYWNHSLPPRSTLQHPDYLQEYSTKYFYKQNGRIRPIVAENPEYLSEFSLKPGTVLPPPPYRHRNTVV
Method: as §1

[8] = molecular target: FGFR3(h) (Homo sapiens, UniProt P22607)
Method: as §1

[9] = molecular target: Flt3(h) (Homo sapiens, UniProt P36888)
Method: as §1

[10] = molecular target: KDR(h) (Homo sapiens, UniProt P35968)
Method: as §1

[11] = molecular target: PAK4(h) (Homo sapiens, UniProt O96013)
Chain of PAK4(h) (O96013 whole entry): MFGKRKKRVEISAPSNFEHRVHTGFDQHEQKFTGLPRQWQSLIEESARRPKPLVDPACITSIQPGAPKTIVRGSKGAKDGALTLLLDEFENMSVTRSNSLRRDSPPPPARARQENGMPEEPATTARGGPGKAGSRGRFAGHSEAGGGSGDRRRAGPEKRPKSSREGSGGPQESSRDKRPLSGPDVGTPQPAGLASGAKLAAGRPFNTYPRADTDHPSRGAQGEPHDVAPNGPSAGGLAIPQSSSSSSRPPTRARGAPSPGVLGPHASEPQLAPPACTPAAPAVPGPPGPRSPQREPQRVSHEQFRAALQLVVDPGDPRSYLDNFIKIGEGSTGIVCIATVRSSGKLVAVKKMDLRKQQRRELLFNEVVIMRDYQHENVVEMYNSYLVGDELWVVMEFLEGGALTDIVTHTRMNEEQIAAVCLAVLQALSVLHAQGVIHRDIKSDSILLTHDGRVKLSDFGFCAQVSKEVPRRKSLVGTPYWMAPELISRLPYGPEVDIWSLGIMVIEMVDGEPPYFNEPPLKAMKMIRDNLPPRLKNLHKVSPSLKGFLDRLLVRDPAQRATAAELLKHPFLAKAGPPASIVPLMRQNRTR
Method: as §1

[12] = molecular target: T4, PDGFRα(h) (Homo sapiens, UniProt P16234)
T4 construct: gene PDGFRA
Method: as §1

[13] = molecular target: PI4K2A (Homo sapiens, UniProt Q9BTU6)
Method: as §1

[14] = molecular target: PIK3CG (Homo sapiens, UniProt P48736)
Method: as §1

[15] = molecular target: T5, PKBα(h) (Homo sapiens, UniProt P31749)
T5 construct: gene AKT1
Method: as §1

[16] = molecular target: T6, PKCδ(h) (Homo sapiens, UniProt Q05655)
T6 construct: gene PRKCD
Method: as §1

[17] = molecular target: T7, Rsk1(h) (Homo sapiens, UniProt Q15418)
T7 construct: gene RPS6KA1
Method: as §1

[18] = molecular target: T8, TAK1(h) (Homo sapiens, UniProt O43318)
T8 construct: gene MAP3K7
Method: as §1

T1 sequence (Q13882 whole entry): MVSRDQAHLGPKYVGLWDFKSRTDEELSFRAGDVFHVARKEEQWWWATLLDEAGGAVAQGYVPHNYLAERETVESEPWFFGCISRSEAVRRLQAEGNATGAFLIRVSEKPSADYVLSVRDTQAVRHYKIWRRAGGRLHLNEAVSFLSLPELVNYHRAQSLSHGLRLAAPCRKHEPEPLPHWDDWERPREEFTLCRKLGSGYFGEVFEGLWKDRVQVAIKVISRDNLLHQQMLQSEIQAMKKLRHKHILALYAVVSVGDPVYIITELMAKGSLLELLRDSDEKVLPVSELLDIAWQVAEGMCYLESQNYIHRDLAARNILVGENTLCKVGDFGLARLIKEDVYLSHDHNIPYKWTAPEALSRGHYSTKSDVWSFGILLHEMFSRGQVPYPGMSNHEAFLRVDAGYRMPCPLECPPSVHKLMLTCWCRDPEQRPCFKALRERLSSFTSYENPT

Structure (SMILES): CC[C@@H](N)CNc1ccnc(-c2cc(-c3cnn(C)c3)ccc2O)n1 [CRT0066101]
- inhibition at 1 µM [1]: 17%
- inhibition at 1 µM [2]: -2%
- inhibition at 1 µM [3]: 13%
- inhibition at 1 µM [4]: -3%
- inhibition at 1 µM [5]: -3%
- inhibition at 1 µM [6]: -1%
- inhibition at 1 µM [7]: 3%
- inhibition at 1 µM [8]: -2%
- inhibition at 1 µM [9]: 4%
- inhibition at 1 µM [10]: 13%
- inhibition at 1 µM [11]: 4%
- inhibition at 1 µM [12]: 14%
- inhibition at 1 µM [13]: 4%
- inhibition at 1 µM [14]: 29%
- inhibition at 1 µM [15]: -6%
- inhibition at 1 µM [16]: 28%
- inhibition at 1 µM [17]: 48%
- inhibition at 1 µM [18]: -6%
